Assay results as given in US20170190671A1, “BIS(ARYL)CATECHOL DERIVATIVES AS HERBICIDES” (E I DU PONT DE NEMOURS AND COMPANY, priority 2014, published 2017).

Experiments:
Type in all cases: in vivo
[1] = test system: Italian ryegrass (Lolium multiflorum); assay: Test A preemergence; conditions: Lolium multiflorum, pre-emergence, 240 h; for pest or weed control at 31 g/ha: 31 g ai/ha, 0 to 100 scale (0 no effect, 100 complete control), read-out: Ryegrass, Italian plant response rating; for pest or weed control at 125 g/ha: 125 g ai/ha, 0 to 100 scale, read-out: Plant response rating, Ryegrass, Italian
Text: (§1) Seeds of plant species selected from barnyardgrass (Echinochloa crus-galli), kochia (Kochia scoparia), ragweed (common ragweed, Ambrosia elatior), Italian ryegrass (Lolium multiflorum), large (Lg) crabgrass (Digitaria sanguinalis), giant foxtail (Setaria faberii), morningglory (Ipomoea spp.), pigweed (Amaranthus retroflexus), velvetleaf (Abutilon theophrasti), wheat (Triticum aestivum), and corn (Zea mays) were planted into a blend of loam soil and sand and treated preemergence with a directed soil spray using test chemicals formulated in a non-phytotoxic solvent mixture which included a surfactant.
(§2) At the same time, plants selected from these crop and weed species and also blackgrass (Alopecurus myosuroides), and galium (catchweed bedstraw, Galium aparine) were planted in pots containing the same blend of loam soil and sand and treated with postemergence applications of test chemicals formulated in the same manner. Plants ranged in height from 2 to 10 cm and were in the one- to two-leaf stage for the postemergence treatment. Treated plants and untreated controls were maintained in a greenhouse for approximately 10 days, after which time all treated plants were compared to untreated controls and visually evaluated for injury. Plant response ratings, summarized in Table A, are based on a 0 to 100 scale where 0 is no effect and 100 is complete control. A dash (-) response means no test result.

[2] = test system: barnyardgrass (Echinochloa crus-galli); assay: Test A preemergence; conditions: Echinochloa crus-galli, pre-emergence, 240 h; for pest or weed control at 31 g/ha: 31 g ai/ha, 0 to 100 scale (0 no effect, 100 complete control), read-out: Barnyardgrass plant response rating; for pest or weed control at 125 g/ha: 125 g ai/ha, 0 to 100 scale, read-out: Plant response rating, Barnyardgrass
Text: as §1, §2

[3] = test system: giant foxtail (Setaria faberii); assay: Test A preemergence; conditions: Setaria faberi, pre-emergence, 240 h; for pest or weed control at 31 g/ha: 31 g ai/ha, 0 to 100 scale (0 no effect, 100 complete control), read-out: Foxtail, Giant plant response rating; for pest or weed control at 125 g/ha: 125 g ai/ha, 0 to 100 scale, read-out: Plant response rating, Foxtail, Giant
Text: as §1, §2

[4] = test system: kochia (Kochia scoparia); assay: Test A preemergence; conditions: Bassia scoparia, pre-emergence, 240 h; for pest or weed control at 31 g/ha: 31 g ai/ha, 0 to 100 scale (0 no effect, 100 complete control), read-out: Kochia plant response rating; for pest or weed control at 125 g/ha: 125 g ai/ha, 0 to 100 scale, read-out: Plant response rating, Kochia
Text: as §1, §2

[5] = test system: pigweed (Amaranthus retroflexus); assay: Test A preemergence; conditions: Amaranthus retroflexus, pre-emergence, 240 h; for pest or weed control at 31 g/ha: 31 g ai/ha, 0 to 100 scale (0 no effect, 100 complete control), read-out: Pigweed plant response rating; for pest or weed control at 125 g/ha: 125 g ai/ha, 0 to 100 scale, read-out: Plant response rating, Pigweed
Text: as §1, §2

[6] = test system: ragweed (common ragweed, Ambrosia elatior); assay: Test A preemergence; conditions: Ambrosia artemisiifolia, pre-emergence, 240 h; for pest or weed control at 31 g/ha: 31 g ai/ha, 0 to 100 scale (0 no effect, 100 complete control), read-out: Ragweed plant response rating; for pest or weed control at 125 g/ha: 125 g ai/ha, 0 to 100 scale, read-out: Plant response rating, Ragweed
Text: as §1, §2

[7] = test system: Italian ryegrass (Lolium multiflorum); assay: Test A postemergence; conditions: Lolium multiflorum, post-emergence, 240 h, 0 to 100 scale, read-out: Plant response rating, Ryegrass, Italian; for pest or weed control at 31 g/ha: 31 g ai/ha; for pest or weed control at 125 g/ha: 125 g ai/ha
Text: as §1, §2

[8] = test system: barnyardgrass (Echinochloa crus-galli); assay: Test A postemergence; conditions: Echinochloa crus-galli, post-emergence, 240 h, 0 to 100 scale, read-out: Plant response rating, Barnyardgrass; for pest or weed control at 31 g/ha: 31 g ai/ha; for pest or weed control at 125 g/ha: 125 g ai/ha
Text: as §1, §2

[9] = test system: blackgrass (Alopecurus myosuroides); assay: Test A postemergence; conditions: Alopecurus myosuroides, post-emergence, 240 h, 0 to 100 scale, read-out: Plant response rating, Blackgrass; for pest or weed control at 31 g/ha: 31 g ai/ha; for pest or weed control at 125 g/ha: 125 g ai/ha
Text: as §1, §2

[10] = test system: corn (Zea mays); assay: Test A postemergence; conditions: Zea mays, post-emergence, 240 h, 0 to 100 scale; for Corn plant response rating (crop injury, 0 = no effect, 100 = complete kill) at 31 g/ha: 31 g ai/ha; for Corn plant response rating (crop injury, 0 = no effect, 100 = complete kill) at 125 g/ha: 125 g ai/ha
Text: as §1, §2

[11] = test system: galium (catchweed bedstraw, Galium aparine); assay: Test A postemergence; conditions: Galium, post-emergence, 240 h, 0 to 100 scale, read-out: Plant response rating, Galium; for pest or weed control at 31 g/ha: 31 g ai/ha; for pest or weed control at 125 g/ha: 125 g ai/ha
Text: as §1, §2

[12] = test system: giant foxtail (Setaria faberii); assay: Test A postemergence; conditions: Setaria faberi, post-emergence, 240 h, 0 to 100 scale, read-out: Plant response rating, Foxtail, Giant; for pest or weed control at 31 g/ha: 31 g ai/ha; for pest or weed control at 125 g/ha: 125 g ai/ha
Text: as §1, §2

[13] = test system: kochia (Kochia scoparia); assay: Test A postemergence; conditions: Bassia scoparia, post-emergence, 240 h, 0 to 100 scale, read-out: Plant response rating, Kochia; for pest or weed control at 31 g/ha: 31 g ai/ha; for pest or weed control at 125 g/ha: 125 g ai/ha
Text: as §1, §2

[14] = test system: pigweed (Amaranthus retroflexus); assay: Test A postemergence; conditions: Amaranthus retroflexus, post-emergence, 240 h, 0 to 100 scale, read-out: Plant response rating, Pigweed; for pest or weed control at 31 g/ha: 31 g ai/ha; for pest or weed control at 125 g/ha: 125 g ai/ha
Text: as §1, §2

[15] = test system: ragweed (common ragweed, Ambrosia elatior); assay: Test A postemergence; conditions: Ambrosia artemisiifolia, post-emergence, 240 h, 0 to 100 scale, read-out: Plant response rating, Ragweed; for pest or weed control at 31 g/ha: 31 g ai/ha; for pest or weed control at 125 g/ha: 125 g ai/ha
Text: as §1, §2

[16] = test system: wheat (Triticum aestivum); assay: Test A postemergence; conditions: Triticum aestivum, post-emergence, 240 h, 0 to 100 scale, read-out: Plant response rating, Wheat; for plant injury at 31 g/ha: 31 g ai/ha; for plant injury at 125 g/ha: 125 g ai/ha
Text: as §1, §2

Compound | pest or weed control at 31 g/ha [1] | pest or weed control at 125 g/ha [1] | pest or weed control at 31 g/ha [2] | pest or weed control at 125 g/ha [2] | pest or weed control at 31 g/ha [3] | pest or weed control at 125 g/ha [3] | pest or weed control at 31 g/ha [4] | pest or weed control at 125 g/ha [4] | pest or weed control at 31 g/ha [5] | pest or weed control at 125 g/ha [5] | pest or weed control at 31 g/ha [6] | pest or weed control at 125 g/ha [6] | pest or weed control at 31 g/ha [7] | pest or weed control at 125 g/ha [7] | pest or weed control at 31 g/ha [8] | pest or weed control at 125 g/ha [8] | pest or weed control at 31 g/ha [9] | pest or weed control at 125 g/ha [9] | Corn plant response rating (crop injury, 0 = no effect, 100 = complete kill) at 31 g/ha [10] | Corn plant response rating (crop injury, 0 = no effect, 100 = complete kill) at 125 g/ha [10] | further results
N#Cc1cccc(Oc2ncc(Cl)cn2)c1Oc1cccnc1 [Compound 8] | 0% | 0% | 0% | 0% | 0% | 0% | 0% | 0% | 0% | 10% | 0% | 0% | 0% | 0% | 0% | 10% | 0% | 0% | 0% | 10% | pest or weed control at 31 g/ha [11]: 10%; pest or weed control at 125 g/ha [11]: 20%; pest or weed control at 31 g/ha [12]: 0%; pest or weed control at 125 g/ha [12]: 0%; pest or weed control at 31 g/ha [13]: 10%; pest or weed control at 125 g/ha [13]: 30%; pest or weed control at 31 g/ha [14]: 10%; pest or weed control at 125 g/ha [14]: 20%; pest or weed control at 31 g/ha [15]: 0%; pest or weed control at 125 g/ha [15]: 0%; plant injury at 31 g/ha [16]: 0%; plant injury at 125 g/ha [16]: 0%
N#Cc1cccc(Oc2ncc(F)cn2)c1Oc1ccc(Br)cn1 [Compound 9] | 0% | 0% | 30% | 90% | 30% | 100% | 40% | 100% | 100% | 100% | 0% | 10% | 20% | 70% | 0% | 50% | 30% | 80% | 0% | 10% | pest or weed control at 31 g/ha [11]: 70%; pest or weed control at 125 g/ha [11]: 100%; pest or weed control at 31 g/ha [12]: 10%; pest or weed control at 125 g/ha [12]: 70%; pest or weed control at 31 g/ha [13]: 60%; pest or weed control at 125 g/ha [13]: 100%; pest or weed control at 31 g/ha [14]: 50%; pest or weed control at 125 g/ha [14]: 100%; pest or weed control at 31 g/ha [15]: 30%; pest or weed control at 125 g/ha [15]: 70%; plant injury at 31 g/ha [16]: 0%; plant injury at 125 g/ha [16]: 40%
